Measurements: ChEMBL document CHEMBL3045295, “Antifeedant triterpenoids from the seeds and bark of Lansium domesticum cv Kokossan (Meliaceae)” (2011)

Tested on: Henosepilachna vigintioctopunctata
Assay: Antifeedant activity against fourth-instar larvae of Henosepilachna vigintioctopunctata on Solanum nigrum leaves at 1 % relative to control
Type: functional

SMILES	AFI
COC(=O)[C@@H]1O[C@]23O[C@H]4CC[C@]5(C)C(=CC(=O)O[C@H]5c5ccoc5)[C@H]4C[C@]2(O)C(=O)C(C)(C)[C@H]1[C@@H]3C [KOKOSANOLIDE A]	78%
C=C1CC[C@H]2C(C)(C)C(=O)CC[C@]2(C)[C@H]1CC[C@H]1C(C)=CC[C@H]2C(C)(C)C(=O)CC[C@]12C	56%
COC(=O)[C@@H]1O[C@]23O[C@H]4CC[C@]5(C)C(=CC(=O)O[C@H]5c5ccoc5)[C@H]4C[C@]2(O)CC(C)(C)[C@H]1[C@@H]3C [KOKOSANOLIDE C]	0%
CC1=CC[C@H]2C(C)(C)C(=O)CC[C@]2(C)[C@H]1CC[C@H]1C(C)(O)CC[C@H]2C(C)(C)C(=O)CC[C@]12C (stereo not given in full) [Kokosanolide B]	99%
CC1=CC[C@H]2C(C)(C)C(=O)CC[C@]2(C)[C@H]1CC[C@H]1C(C)=CC[C@H]2C(C)(C)C(=O)CC[C@]12C	85%
